# Like-named read-outs stand apart in the source and are kept apart here.
# Columns and labels:
# [1] = system: non-malignant CHO-K1 cell line; assay: Cell viability, sulforhodamine B (SRB) assay, CHO-K1 cells; format: cell-based; settings: Cricetulus griseus
# Protocol: (§1) Biological assays were performed using an adenocarcinoma colon cancer cell line (SW480) and non-malignant cells (CHO-K1). These were obtained from the European Collection of Authenticated Cell Cultures (ECACC, England) and maintained in Dulbecco’s Modified Eagle Medium, supplemented with 10% heat-inactivated (56 °C) horse serum, 1% penicillin/streptomycin and 1% non-essential amino acids (Gibco Invitrogen, Carlsbad, USA). For all experiments, horse serum was reduced to 3%, and the medium was supplemented with […] transferrin, 5 ng/mL selenium and […] insulin (ITS-defined medium; Gibco, Invitrogen, Carlsbad, USA) ([32]).
# (§2) The cell viability of the synthesized hybrids, lead, and reference compounds was evaluated through Sulforhodamine B (SRB) assay, a colorimetric test that is based on staining of total cellular protein of adherent cells. The cells were seeded to a ﬁnal density of 20.000 cells/well in 96-well tissue culture plates and incubated at 37 °C in a humidified atmosphere at 5% CO2. […] After treatment, the cells were fixed with trichloroacetic acid (50% v/v) (MERCK) for a period of one h at 4 °C. The cell proteins were determined by staining with 0.4% (w/v) SRB (Sigma-Aldrich, United States), then they were washed with 1% acetic acid for the removal of unbound SRB and left for air-drying. Protein bound SRB was solubilized in 10 mM Tris-base and the absorbance was measured at 492 nm in a microplate reader (Mindray MR-96A) ([33]). All of the experiments were performed at least in quintuplicate.
# [2] = system: SW480 human colon adenocarcinoma cells; assay: Cell viability, sulforhodamine B (SRB) assay, SW480 cells; format: cell-based; settings: for IC50: Homo sapiens, SW480 cells, SRB; for SI (selectivity index), 24 h: ratio of IC50 against CHO-K1 to IC50 against SW480, 24 h; for SI (selectivity index), 48 h: ratio of IC50 against CHO-K1 to IC50 against SW480, 48 h
# Protocol: as §1, §2
# [3] = system: SW480 cells; assay: Cell cycle analysis, propidium iodide flow cytometry; format: cell-based, human; settings: SW480, treated at IC50, 48 h
# Protocol: Cell cycle distribution was analyzed by labelling cells with propidium iodide (PI). Assays were carried out as described by Nicoletti et al. (1991). In brief, cells were seeded in 6-well tissue culture plates at a density of 2.5 x 10^5 cells/well, incubated at 37 °C in a 5% CO2 atmosphere. […] After the treatment, the cells were collected by scraping and the centrifuged cell pellet was resuspended with phosphate buffered saline (PBS). The cell suspension was fixed in 1.8 mL 70% ethanol at 4°C overnight, afterward, these were centrifuged, washed twice in PBS and resuspended in 300 µL of PBS containing 0.25 mg/mL RNAse (Type I-A, Sigma-Aldrich, Germany) and 0.1 mg/mL PI. Following the incubation in the dark at room temperature for 30 min, the PI ﬂuorescence of 10,000 cells was analyzed using a FACS Canto II ﬂow cytometer and the software BD FACS Diva 6.1.3. (BD Biosciences, San Jose). PI signal was analyzed with excitation at 488 nm, using a Sapphire laser, and fluorescence was detected at 610nm. The cell clumps were excluded with the PI-Area vs PI-Width signals. The cell cycle model was ﬁxed using the software FlowJo 7.6.2 (Ashland, OR, USA), applying the Dean-Jett-Fox model ([34], [35]).
# [4] = system: SW480 cells; assay: Mitochondrial membrane potential (ΔΨm), DiOC6/PI flow cytometry; format: cell-based, human; settings: SW480, treated at IC50, 48 h; for PI+ cells: cells in process of death; for DiOC6 low cells: cells that lose membrane polarization; for DiOC6 high cells: live cells with high membrane polarization; for Mitochondrial membrane depolarization in words: vs control
# Protocol: Mitochondrial membrane permeability changes were assessed through the fluorescent dye DiOC6 (3,3’-dihexyloxacarbocyanine iodide, Thermo Fisher Scientiﬁc, Waltham, MA, USA), and propidium iodide (PI). The cells were seeded to a ﬁnal density of 2.5 x 10^5 cells/well in 6-well tissue culture plates and were allowed to grow for 24 h. […] The cells were collected to analyze 10,000 events by ﬂow cytometry with excitation at 488 nm and detection of the emission with the green (530/15 nm) and the red (610/20 nm) ﬁlters. This method allowed us quantifying cells with depolarized mitochondrial membrane ([34]).
# [5] = system: SW480 cells; assay: Antiproliferative activity, SRB assay over 0-8 days; format: cell-based, human; settings: 0.1-0.55 mM, p ≤ 0.05 vs control
# Protocol: Briefly, the cells were seeded to a ﬁnal density of 2500 cells/well in 96-well tissue culture plates and incubated in the same conditions described for viability. […] Culture media was replaced every 48 h. After each incubation time, the cells were fixed, stained, and read as previously described for this technique ([32]).
# [6] = system: human nasopharyngeal carcinoma cell line KB; set-up: method as in PMID 19272773; settings: cited from earlier work
# [7] = system: human gastric carcinoma cell line BGC-823; set-up: method as in PMID 19272773; settings: cited from earlier work
# [8] = system: human hepatoma cell line BEL-7402; set-up: method as in PMID 19272773; settings: cited from earlier work
# [9] = 24 h treatment, read-out: IC50 (mM) CHO-K1 cells, 24 h
# [10] = 48 h treatment, read-out: IC50 (mM) CHO-K1 cells, 48 h
# [11] = 24 h treatment, read-out: IC50 (mM) SW480 cells, 24 h
# [12] = 48 h treatment, read-out: IC50 (mM) SW480 cells, 48 h
SMILES,"IC50 [1, 9] [mM]","IC50 [1, 10] [mM]",melting point [°C],"IC50 [2, 11] [mM]","IC50 [2, 12] [mM]","SI (selectivity index), 24 h [2]","SI (selectivity index), 48 h [2]",Cytotoxic activity in words ([2]; at 24 h and 48 h after treatment),Cells in G0/G1 phase [3] [%],Cells in S phase [3] [%],Effect on cell cycle in words [3],PI+ cells [4],DiOC6 low cells [4],DiOC6 high cells [4],Day from which significant antiproliferative activity was displayed [5] [days],Cells in G2/M phase [3] [%],Mitochondrial membrane depolarization in words [4],IC50 against KB [6] [µg/mL],IC50 against BGC-823 [7] [µg/mL],IC50 against BEL-7402 [8] [µg/mL]
"C=CCSC[C@H](NC(=O)/C=C/c1ccc(OC(C)=O)c(OC(C)=O)c1)C(=O)OCCC [6c, Propyl N-{(2E)-3-[3,4-bis(acetyloxy)phenyl]prop-2-enoyl}-S-prop-2-en-1-ylcysteinate]",0.27,1.25,80 to 82,1.02,> 10,0.26,<0.13,,,,,,,,,,,,,
"C=CCSC[C@H](N)C(=O)O [S-Allylcysteine, reference compound]",> 10,> 10,,> 10,0.38,>1.0,>26.32,,,,,,,,,,,,,
"C=CCSC[C@H](N)C(=O)OC [3a, S-Allylcysteine methyl ester]",1.85,> 10,114 to 116,> 10,> 10,<0.19,,,,,,,,,,,,,,
"C=CCSC[C@H](NC(=O)/C=C/c1ccc(OC(C)=O)c(OC(C)=O)c1)C(=O)OCC [6b, Ethyl N-{(2E)-3-[3,4-bis(acetyloxy)phenyl]prop-2-enoyl}-S-prop-2-en-1-ylcysteinate]",3.84,> 10,,> 10,> 10,,,did not exhibit activity,,,,,,,,,,,,
"C=CCSC[C@H](NC(=O)/C=C/c1ccc(O)c(O)c1)C(=O)OCCC [9c, Propyl N-[(2E)-3-(3,4-dihydroxyphenyl)-2-propenoyl]-S-2-propen-1-yl-L-cysteinate]",0.12,> 10,,0.1,0.11,,,,67.3,23,S- phase,"9,13%","45,0%","44,5%",,,,,,
O=C(O)/C=C/c1ccc(O)c(O)c1 [Caffeic acid],> 10,> 10,,7.06,3.47,>1.42,>2.88,,,,,,,,,,,,,
"C=CCSC[C@H](NC(=O)/C=C/c1ccc(OC(C)=O)c(OC(C)=O)c1)C(=O)OC [6a, Methyl N-{(2E)-3-[3,4-bis(acetyloxy)phenyl]prop-2-enoyl}-S-prop-2-en-1-ylcysteinate]",2.77,7.83,,0.67,> 10,,,,,,,,,,,,,,,
"C=CCSC[C@H](NC(=O)/C=C/c1ccc(O)c(O)c1)C(=O)OCCCCC [9e, Pentyl N-[(2E)-3-(3,4-dihydroxyphenyl)-2-propenoyl]-S-2-propen-1-yl-L-cysteinate]",0.21,> 10,,0.2,0.12,,,,,,cell cycle arrest in G2/M phase,"8,32%","59,9%","32,5%",2,22.3,highest activity,,,
"C=CCSC[C@H](NC(=O)/C=C/c1ccc(O)c(O)c1)C(=O)OCC [9b, Ethyl N-[(2E)-3-(3,4-dihydroxyphenyl)-2-propenoyl]-S-2-propen-1-yl-L-cysteinate]",> 10,> 10,,0.93,0.12,,,,,,did not have any impact on the cell cycle,"21,9%","36,5%","42,0%",,,,,,
Cc1cccc(NC(=O)/C(C#N)=C/c2cc(O)c(O)c([N+](=O)[O-])c2)c1 [cyanoamide derivative 5],,,,,,,,,,,,,,,,,,13.1,5.6,12.5
"C=CCSC[C@H](NC(=O)/C=C/c1ccc(O)c(O)c1)C(=O)OC [9a, Methyl N-[(2E)-3-(3,4-dihydroxyphenyl)-2-propenoyl]-S-2-propen-1-yl-L-cysteinate]",0.47,0.18,101 to 103,0.24,0.12,2.0,1.5,,,,cell cycle arrest in G2/M phase,"8,16%","62,9%","29,4%",,18.8,highest activity,,,
"C=CCSC[C@H](N)C(=O)OCCC [3c, Propyl S-prop-2-en-1-ylcysteinate]",1.5,1.24,115 to 117,> 10,1.28,<0.15,0.97,,,,,,,,,,,,,
"C=CCSC[C@H](NC(=O)/C=C/c1ccc(OC(C)=O)c(OC(C)=O)c1)C(=O)OCCCCC [6e, Pentyl N-{(2E)-3-[3,4-bis(acetyloxy)phenyl]prop-2-enoyl}-S-prop-2-en-1-ylcysteinate]",0.26,1.84,101 to 103,0.68,0.18,0.40,10.3,,,,cell cycle arrest in G2/M phase,"9,38%","39,9%","51,0%",2,22.7,,,,
"C=CCSC[C@H](NC(=O)/C=C/c1ccc(O)c(O)c1)C(=O)OCCCC [9d, Butyl N-[(2E)-3-(3,4-dihydroxyphenyl)-2-propenoyl]-S-2-propen-1-yl-L-cysteinate]",> 10,> 10,119 to 121,0.11,0.15,>90.91,>66.67,,,,,,,,4,,,,,
"O=c1[nH]cc(F)c(=O)[nH]1 [5-Fluorouracil, 5-fluorouracil, reference compound]",0.091,0.048,,0.062,0.035,,1.34,,,,,,,,,,,,,
"C=CCSC[C@H](NC(=O)/C=C/c1ccc(OC(C)=O)c(OC(C)=O)c1)C(=O)OCCCC [6d, Butyl N-{(2E)-3-[3,4-bis(acetyloxy)phenyl]prop-2-enoyl}-S-prop-2-en-1-ylcysteinate]",0.21,9.97,,2.79,> 10,,,,,,,,,,,,,,,
